Data set [1] concerns the target T1, XIAP linker-BIR2-BIR3 (Homo sapiens, UniProt P98170). As to the kind of experiment: Cell-free caspase-3/7 functional assay. The note with it: compound 60 μM; XIAP linker-BIR2-BIR3 20 nM.
Data set [2] deals with PARP cleavage and caspase-3 processing in MDA-MB-231 cells. As to the kind of experiment: Western blot analysis of PARP cleavage and caspase-3 processing. It is filed as cell-based, human. The following applies: 24 h; for concentration causing PARP cleavage / concentration causing caspase-3 processing: MDA-MB-231, Western blot; for caspase-3 processing and PARP cleavage: 30 nM, MDA-MB-231. In general terms: In western blotting, separated proteins are transferred to a membrane and probed.

The target of data set [3] is cIAP1 in MDA-MB-231 cells (Homo sapiens, UniProt Q13490). The following applies: 24 h, MDA-MB-231, Western blot.
Data set [4] deals with XIAP L-BIR2-BIR3 (residues 120–356) (Homo sapiens, UniProt P98170). The following applies: relative to 15; cited from earlier work.
For data set [5], the target named is cIAP-1 BIR3 (residues 253–363) (Homo sapiens, UniProt Q13490). The following applies: relative to 15; cited from earlier work.
Data set [6] has as its target cIAP-2 BIR3 (residues 238–349) (Homo sapiens, UniProt Q13489). The note with it: relative to 15; cited from earlier work.
Data set [7] concerns MDA-MB-231 xenograft. The following applies: 5 mg/kg, mice; cited from earlier work.
Data set [8] has as its system subset of human cancer cell lines. The note with it: cited from earlier work.
Data set [9] addresses T1, XIAP linker-BIR2-BIR3. As to the kind of experiment: Cell-free caspase-9 functional assay. It is filed as biochemical. The note with it: compound as high as 100 μM; XIAP 500 nM.
The nature of data set [10]: Solubility. It is filed as physicochemical.
The subject of data set [11] is MDA-MB-231 xenograft. The following applies: SCID mice; 27 at 1 or 5 mg/kg i.v.; Taxotere […] i.v. days 2 and 9.

In [1], `CN[C@@H](C)C(=O)N[C@H]1CCCC[C@H]2CC[C@@H](C(=O)NC(c3ccccc3)c3ccccc3)N2C1=O` [Compound 15] gave a caspase-3/7 activity restored of 40%.

Consider `CN[C@@H](C)C(=O)N[C@H]1CCCC[C@H]2CC[C@@H](C(=O)N[C@@H](c3ccccc3)c3cn(CCCCc4ccc(CCCCn5cc([C@@H](NC(=O)[C@@H]6CC[C@@H]7CCCC[C@H](NC(=O)[C@H](C)NC)C(=O)N76)c6ccccc6)nn5)cc4)nn3)N2C1=O` [Compound 16], for which, in [2], the “concentration causing PARP cleavage” value came to 3 nM and the “concentration causing caspase-3 processing” value came to 3 nM. Further, in data set [3], the “concentration inducing clear/robust cIAP1 degradation” value turned out to be 1 nM. Also, in data set [4], the “times more potent than 15 in binding to XIAP containing both BIR2 and BIR3 domains” value was greater than 100 times. The “times more potent than 15 in binding to cIAP1 BIR3 protein” value in [5] is reported as 10 times. Besides, in data set [6], the “times more potent than 15 in binding to cIAP2 BIR3 protein” value is listed as 10 times. The “antitumor effect in MDA-MB-231 xenograft model” value in data set [7] is on record as “tumor regression”. In [8], the “concentrations effectively inducing apoptosis and inhibiting cell growth (as low as)” value was 1 to 10 nM; the “times more potent than 15 in inducing apoptosis and inhibiting cell growth” value was 100 times.

In the case of `CC(=O)N[C@@H](Cc1c[nH]c2ccccc12)C(=O)N[C@H]1CCCC[C@H]2CC[C@@H](C(=O)N[C@@H](c3ccccc3)c3cn(CCCCc4ccc(CCCCn5cc([C@@H](NC(=O)[C@@H]6CC[C@@H]7CCCC[C@H](NC(=O)[C@H](Cc8c[nH]c9ccccc89)NC(C)=O)C(=O)N76)c6ccccc6)nn5)cc4)nn3)N2C1=O` [Compound 17], in data set [9], the “restoration of caspase-9 activity” value is listed as “fails to restore any caspase-9 activity”.

Regarding `CN[C@@H](C)C(=O)N[C@H]1CCCC[C@H]2CC[C@@H](C(=O)N[C@@H](c3ccccc3)c3cn(Cc4ccc(Cn5cc([C@@H](NC(=O)[C@@H]6CC[C@@H]7CCCC[C@H](NC(=O)[C@H](C)NC)C(=O)N76)c6ccccc6)nn5)cc4)nn3)N2C1=O` [Compound 18, (S,3S,3′S,6S,6′S,10aS,10a′S)-N,N′-((1S,1′S)-(1,1′-(1,4-phenylenebis(methylene))bis(1H-1,2,3-triazole-4,1-diyl))bis(phenylmethylene))bis(6-((S)-2-(methylamino)propanamido)-5-oxodecahydropyrrolo[1,2-a]azocine-3-carboxamide)], in data set [2], the “caspase-3 processing and PARP cleavage” value was “fail to induce caspase-3 processing and PARP cleavage”.

As for `CN[C@@H](C)C(=O)N[C@H]1CCCC[C@H]2CC[C@@H](C(=O)N[C@@H](c3ccccc3)c3cn(CCc4ccc(CCn5cc([C@@H](NC(=O)[C@@H]6CC[C@@H]7CCCC[C@H](NC(=O)[C@H](C)NC)C(=O)N76)c6ccccc6)nn5)cc4)nn3)N2C1=O` [Compound 19, (S,3S,3′S,6S,6′S,10aS,10a′S)-N,N′-((1S,1′S)-(1,1′-(1,4-phenylenebis(ethane-2,1-diyl))bis(1H-1,2,3-triazole-4,1-diyl))bis(phenylmethylene))bis(6-((S)-2-(methylamino)propanamido)-5-oxodecahydropyrrolo[1,2-a]azocine-3-carboxamide)], the “caspase-3 processing and PARP cleavage” value in data set [2] is “fail to induce caspase-3 processing and PARP cleavage”.

For `CN[C@@H](C)C(=O)N[C@H]1CCCC[C@H]2CC[C@@H](C(=O)N[C@@H](c3ccccc3)c3cn(CCCc4ccc(CCCn5cc([C@@H](NC(=O)[C@@H]6CC[C@@H]7CCCC[C@H](NC(=O)[C@H](C)NC)C(=O)N76)c6ccccc6)nn5)cc4)nn3)N2C1=O` [Compound 20, (S,3S,3′S,6S,6′S,10aS,10a′S)-N,N′-((1S,1′S)-(1,1′-(1,4-phenylenebis(propane-3,1-diyl))bis(1H-1,2,3-triazole-4,1-diyl))bis(phenylmethylene))bis(6-((S)-2-(methylamino)propanamido)-5-oxodecahydropyrrolo[1,2-a]azocine-3-carboxamide)], in data set [2], the “concentration causing PARP cleavage” value stood at 3 nM and the “concentration causing caspase-3 processing” value came out at 10 nM.

In the case of `CN[C@@H](C)C(=O)N[C@H]1CCCC[C@H]2CC[C@@H](C(=O)N[C@@H](c3ccccc3)c3cn(CCCCCCc4ccc(CCCCCCn5cc([C@@H](NC(=O)[C@@H]6CC[C@@H]7CCCC[C@H](NC(=O)[C@H](C)NC)C(=O)N76)c6ccccc6)nn5)cc4)nn3)N2C1=O` [Compound 21, (S,3S,3′S,6S,6′S,10aS,10a′S)-N,N′-((1S,1′S)-(1,1′-(1,4-phenylenebis(hexane-6,1-diyl))bis(1H-1,2,3-triazole-4,1-diyl))bis(phenylmethylene))bis(6-((S)-2-(methylamino)propanamido)-5-oxodecahydropyrrolo[1,2-a]azocine-3-carboxamide)], in data set [2], the “concentration causing PARP cleavage” value came to 3 nM and the “concentration causing caspase-3 processing” value was determined as 3 nM.

Take `CN[C@@H](C)C(=O)N[C@H]1CCCC[C@H]2CC[C@@H](C(=O)N[C@@H](c3ccccc3)c3cn(CCCCCOCCCCCn4cc([C@@H](NC(=O)[C@@H]5CC[C@@H]6CCCC[C@H](NC(=O)[C@H](C)NC)C(=O)N65)c5ccccc5)nn4)nn3)N2C1=O` [Compound 27, (S,3S,3′S,6S,6′S,10aS,10a′S)-N,N′-((1S,1′S)-(1,1′-(oxybis(pentane-5,1-diyl))bis(1H-1,2,3-triazole-4,1-diyl))bis(phenylmethylene))bis(6-((S)-2-(methylamino)propanamido)-5-oxodecahydropyrrolo[1,2-a]azocine-3-carboxamide)]: the solubility result in [10] is “excellent solubility”. For the same compound, the “weight loss / signs of toxicity” value in data set [11] is reported as “no signs of toxicity”.
